Measured values taken from BigSolDB 2.1.

CCC(C)n1ncn(-c2ccc(N3CCN(c4ccc(OC[C@H]5CO[C@](Cn6cncn6)(c6ccc(Cl)cc6Cl)O5)cc4)CC3)cc2)c1=O (mixture of isomers)
solubility (mole fraction)
Settings | in chloroform | in dichloromethane | in ethanol | in methanol | in n-butanol | in n-propanol
288.15 K | 0.0459 | 0.0287 | 1.07e-05 | 2.35e-05 | 1.43e-05 | 1.24e-05
293.15 K | 0.048 | 0.0306 | 1.43e-05 | 2.97e-05 | 1.82e-05 | 1.61e-05
298.15 K | 0.0503 | 0.0326 | 1.89e-05 | 3.78e-05 | 2.28e-05 | 2.09e-05
303.15 K | 0.0525 | 0.0347 | 2.44e-05 | 4.71e-05 | 2.87e-05 | 2.68e-05
308.15 K | 0.0548 | 0.0369 | 3.18e-05 | 5.88e-05 | 3.52e-05 | 3.36e-05
